Assay results reported in patent publication US20130224795A1, “IMMOBILIZATION METHOD OF BIOACTIVE MOLECULES USING POLYPHENOL OXIDASE” (Ajou University Industry-Academic Cooperation Foundation, priority 2010, published 2013).

Tests used:
[1] = Contact angle measurement on immobilized substrate surfaces; assay type: physicochemical; conditions: stainless steel or titanium; immobilization 30 min; tyramine with tyrosinase 0.4 KU/mL, dopamine without
Procedure: For experiments, dopamine and tyramine/tyrosinase were immobilized onto metal surfaces. In this regard, 450 μL of phosphate saline buffer was added to a piece of stainless steel or titanium metal and mixed with 40 μL of dopamine or tyramine having a concentration of 100 μg/mL. In the case of tyramine, tyrosinase having a concentration of 0.4 KU/mL was added in an amount of 10 μL. For effective comparison, a reaction was performed for 30 min. After immobilization, the specimens were washed three to five times with distilled water. An analysis was made of the results using contact angles and amine distributions on the surface. For contact angle measurements, droplets of 1 μL were deposited on a specimen surface and the angle at which the droplet interface meets the surface was measured using a contact angle meter (GBX Inc., France) and image analysis software.
Contact angles were measured to examine the change in hydrophilicity of bioactive molecule-immobilized surface. Droplets of 1 μL were deposited on a specimen surface after which contact angles were measured using a contact anglemeter (GBX Inc., France) equipped with image analysis software.

osteoblasts (MC3T3-E1) = test: Cell proliferation assay (MTT); assay type: cell-based; conditions: immobilized stainless steel; 1×10^4 cell/cm^2; 7 days; versus bare surface
Procedure: For cell proliferation assay, osteoblasts (MC3T3-E1) were cultured at a density of 1×10^4 cell/cm^2 for 7 days on RGD- or gelatin-immobilized stainless steel, titanium or polyurethane surfaces, followed by conducting an MTTassay. Each specimen is represented in the form of, for example, ST-RGD 0.17 which stands for the immobilization of RGD at a concentration of 0.17 μg/cm^2 on stainless steel.

Row | Compound | contact angle [1] [°] | proliferation of osteoblasts (osteoblasts (MC3T3-E1))
1 | NCCc1ccc(O)c(O)c1 [dopa, dopamine] | 45 | 
2 | NCCc1ccc(O)cc1 [tyramine] | 30 | 
3 | gelatin-poly(ethylene glycol)-tyramine |  | improved the proliferation
